Molecules are shown by their SMILES. ≈ marks a conversion by molar mass, not a printed value.

Assay type in all cases: functional
One assay deals with Staphylococcus aureus. In words: Antibacterial activity against Staphylococcus aureus after 12 to 16 hrs by plate reader analysis.
Another assay has as its system Bacillus cereus. As to the kind of experiment: Antibacterial activity against Bacillus cereus after 12 to 16 hrs by plate reader analysis.
Assay [1] deals with Ralstonia solanacearum. In words: Antibacterial activity against Pseudomonas solanacearum after 12 to 16 hrs by plate reader analysis.
The subject of assay [2] is Ralstonia solanacearum. In words: Antibacterial activity against Ralstonia solanacearum after 12 to 16 hrs by plate reader analysis.

One may read the MIC as the smallest concentration in the dilution series that meets the test's criterion for growth inhibition. Lower therefore signals greater potency. As to `O=C1CCc2nccc3c4ccccc4n1c23`, the minimal inhibitory concentration (MIC) came out at 125 µg/mL (≈ 562 µM) in the assay with Staphylococcus aureus, 15.6 µg/mL (≈ 70.3 µM) against Bacillus cereus, 7.81 µg/mL (≈ 35.1 µM) against Ralstonia solanacearum [1] and 15.6 µg/mL (≈ 70.3 µM) in the assay on Ralstonia solanacearum [2].

On to `O=C1CCC2c3c(c4ccccc4n31)CCN2Cc1ccccc1` (stereo unspecified), for which the minimal inhibitory concentration (MIC) in the assay on Staphylococcus aureus, against Bacillus cereus, against Ralstonia solanacearum [1] and in the assay on Ralstonia solanacearum [2] was > 125 µg/mL each time.

`Cc1ccc(C[n+]2ccc3c4ccccc4n4c(=O)ccc2c34)cc1.[Cl-]`: the MIC in the assay with Staphylococcus aureus worked out at 1.95 µg/mL; in the assay on Bacillus cereus, 15.6 µg/mL; in the assay with Ralstonia solanacearum [1], 7.81 µg/mL; in the assay with Ralstonia solanacearum [2], 31.2 µg/mL.

Regarding `CCCCCCCC[n+]1ccc2c3ccccc3n3c(=O)ccc1c23.[Br-]`, the minimum inhibitory concentration (MIC) against Staphylococcus aureus stood at 0.98 µg/mL; against Bacillus cereus it was 62.5 µg/mL; against Ralstonia solanacearum [1], 7.81 µg/mL; in the assay with Ralstonia solanacearum [2], 31.2 µg/mL.

On to `O=c1ccc2c3c(cc[n+]2Cc2ccc(CBr)cc2)c2ccccc2n13.[Br-]`, for which the MIC with Staphylococcus aureus is 7.81 µg/mL; against Bacillus cereus it was 62.5 µg/mL; with Ralstonia solanacearum [1] it was 31.2 µg/mL; with Ralstonia solanacearum [2], 31.2 µg/mL.

Regarding `O=c1ccc2c3c(cc[n+]2Cc2ccc(Cl)cc2)c2ccccc2n13.[Cl-]`, the MIC was found to be 7.81 µg/mL in the assay on Staphylococcus aureus, 15.6 µg/mL with Bacillus cereus, 15.6 µg/mL with Ralstonia solanacearum [1] and 15.6 µg/mL in the assay with Ralstonia solanacearum [2].

As to `Cc1cccc(C[n+]2ccc3c4ccccc4n4c(=O)ccc2c34)c1.[Cl-]`, the minimum inhibitory concentration (MIC) was 1.95 µg/mL against Staphylococcus aureus, 15.6 µg/mL against Bacillus cereus, 7.81 µg/mL in the assay on Ralstonia solanacearum [1] and 15.6 µg/mL in the assay on Ralstonia solanacearum [2].

As to `CC[n+]1ccc2c3ccccc3n3c(=O)ccc1c23.[I-]`, the MIC in the assay on Staphylococcus aureus, in the assay on Bacillus cereus, in the assay with Ralstonia solanacearum [1] and in the assay on Ralstonia solanacearum [2] was > 125 µg/mL in each case.

Turning to `O=c1ccc2c3c(cc[n+]2Cc2ccc(F)cc2F)c2ccccc2n13.[Cl-]`, the MIC against Staphylococcus aureus is 0.98 µg/mL; against Bacillus cereus, 31.2 µg/mL; against Ralstonia solanacearum [1], 7.81 µg/mL; against Ralstonia solanacearum [2], 31.2 µg/mL.

As for `O=c1ccc2c3c(cc[n+]2Cc2ccccc2)c2ccccc2n13.[Cl-]`, the minimum inhibitory concentration (MIC) in the assay with Staphylococcus aureus was determined as 1.95 µg/mL; with Bacillus cereus, 3.91 µg/mL; in the assay with Ralstonia solanacearum [1], 1.95 µg/mL; against Ralstonia solanacearum [2], 3.91 µg/mL.

Take `O=c1ccc2c3c(cc[n+]2Cc2ccc(F)cc2)c2ccccc2n13.[Cl-]`: the minimal inhibitory concentration (MIC) in the assay on Staphylococcus aureus stood at 1.95 µg/mL; with Bacillus cereus it was 31.2 µg/mL; against Ralstonia solanacearum [1], 15.6 µg/mL; in the assay with Ralstonia solanacearum [2], 31.2 µg/mL.

As for `O=C1CCC2NCCc3c2n1c1ccccc31` (stereo unspecified), the MIC with Staphylococcus aureus, in the assay with Bacillus cereus, in the assay on Ralstonia solanacearum [1] and against Ralstonia solanacearum [2] was > 125 µg/mL each time.

`O=c1ccc2c3c(cc[n+]2Cc2ccccc2F)c2ccccc2n13.[Cl-]`: the MIC was 1.95 µg/mL against Staphylococcus aureus, 7.81 µg/mL against Bacillus cereus, 3.91 µg/mL against Ralstonia solanacearum [1] and 15.6 µg/mL in the assay on Ralstonia solanacearum [2].

With `O=c1ccc2c3c(cc[n+]2Cc2c(F)cccc2F)c2ccccc2n13.[Cl-]`, the MIC with Staphylococcus aureus stood at 0.98 µg/mL; in the assay with Bacillus cereus, 15.6 µg/mL; against Ralstonia solanacearum [1] it was 7.81 µg/mL; against Ralstonia solanacearum [2], 15.6 µg/mL.

With `CC(C)[n+]1ccc2c3ccccc3n3c(=O)ccc1c23.[I-]`, the minimum inhibitory concentration (MIC) against Staphylococcus aureus, with Bacillus cereus, in the assay with Ralstonia solanacearum [1] and with Ralstonia solanacearum [2] was > 125 µg/mL throughout.

For `CCCCC[n+]1ccc2c3ccccc3n3c(=O)ccc1c23.[I-]`, the MIC in the assay with Staphylococcus aureus amounted to 31.2 µg/mL; in the assay on Bacillus cereus it was 62.5 µg/mL; against Ralstonia solanacearum [1] it was 15.6 µg/mL; in the assay with Ralstonia solanacearum [2], 31.2 µg/mL.

Turning to `CCC[n+]1ccc2c3ccccc3n3c(=O)ccc1c23.[I-]`, the MIC against Staphylococcus aureus, in the assay with Bacillus cereus, with Ralstonia solanacearum [1] and with Ralstonia solanacearum [2] was > 125 µg/mL in each case.

Take `O=c1ccc2c3c(cc[n+]2Cc2ccc(C(F)(F)F)cc2)c2ccccc2n13.[Cl-]`: the MIC against Staphylococcus aureus turned out to be 7.81 µg/mL; in the assay on Bacillus cereus, 62.5 µg/mL; in the assay on Ralstonia solanacearum [1] it was 62.5 µg/mL; against Ralstonia solanacearum [2] it was 15.6 µg/mL.

`C=CC[n+]1ccc2c3ccccc3n3c(=O)ccc1c23.[Br-]`: the MIC is 62.5 µg/mL in the assay on Staphylococcus aureus, 125 µg/mL against Bacillus cereus, 62.5 µg/mL in the assay with Ralstonia solanacearum [1] and 62.5 µg/mL against Ralstonia solanacearum [2].

For the compound `CC(C)C[n+]1ccc2c3ccccc3n3c(=O)ccc1c23.[I-]`, the MIC was 125 µg/mL against Staphylococcus aureus, > 125 µg/mL with Bacillus cereus, 62.5 µg/mL against Ralstonia solanacearum [1] and > 125 µg/mL against Ralstonia solanacearum [2].

For the compound `C[n+]1ccc2c3ccccc3n3c(=O)ccc1c23.[I-]`, the MIC in the assay on Staphylococcus aureus, in the assay with Bacillus cereus, against Ralstonia solanacearum [1] and with Ralstonia solanacearum [2] was > 125 µg/mL each time.

As for `Cc1ccccc1C[n+]1ccc2c3ccccc3n3c(=O)ccc1c23.[Cl-]`, the MIC against Staphylococcus aureus was found to be 1.95 µg/mL; in the assay on Bacillus cereus, 7.81 µg/mL; in the assay on Ralstonia solanacearum [1] it was 3.91 µg/mL; with Ralstonia solanacearum [2], 7.81 µg/mL.

Turning to `O=c1ccc2c3c(cc[n+]2Cc2ccccc2)c2ccccc2n13.[Br-]`, the MIC against Staphylococcus aureus was found to be 0.98 µg/mL; against Bacillus cereus, 3.91 µg/mL; in the assay on Ralstonia solanacearum [1], 7.81 µg/mL; in the assay with Ralstonia solanacearum [2], 3.91 µg/mL.

Regarding `O=c1ccc2c3c(cc[n+]2Cc2ccc(OCc4ccccc4)cc2)c2ccccc2n13.[Cl-]`, the minimal inhibitory concentration (MIC) in the assay on Staphylococcus aureus came out at 0.98 µg/mL; against Bacillus cereus, 15.6 µg/mL; in the assay with Ralstonia solanacearum [1], 3.91 µg/mL; in the assay with Ralstonia solanacearum [2] it was 7.81 µg/mL.

Consider `O=c1ccc2c3c(cc[n+]2[O-])c2ccccc2n13`, for which the minimum inhibitory concentration (MIC) came to 15.6 µg/mL (≈ 66.2 µM) in the assay with Staphylococcus aureus, 15.6 µg/mL (≈ 66.2 µM) with Bacillus cereus, 7.81 µg/mL (≈ 33.1 µM) in the assay with Ralstonia solanacearum [1] and 15.6 µg/mL (≈ 66.2 µM) in the assay on Ralstonia solanacearum [2].

With `CCCC[n+]1ccc2c3ccccc3n3c(=O)ccc1c23.[I-]`, the MIC against Staphylococcus aureus was 62.5 µg/mL; in the assay with Bacillus cereus, 125 µg/mL; against Ralstonia solanacearum [1], 62.5 µg/mL; in the assay with Ralstonia solanacearum [2], 62.5 µg/mL.

For `CC1(C)S[C@@H]2[C@H](NC(=O)[C@H](N)c3ccccc3)C(=O)N2[C@H]1C(=O)[O-].[Na+]` [AMPICILLIN SODIUM], the MIC against Staphylococcus aureus worked out at 3.91 µg/mL; against Bacillus cereus, 3.91 µg/mL; against Ralstonia solanacearum [1], 7.81 µg/mL; in the assay on Ralstonia solanacearum [2], 7.81 µg/mL.

On to `O=c1ccc2nccc3c4ccccc4n1c23` [CANTHIN-6-ONE], for which the MIC came out at 31.2 µg/mL (≈ 142 µM) in the assay on Staphylococcus aureus, 7.81 µg/mL (≈ 35.5 µM) against Bacillus cereus, 3.91 µg/mL (≈ 17.8 µM) in the assay on Ralstonia solanacearum [1] and 7.81 µg/mL (≈ 35.5 µM) in the assay with Ralstonia solanacearum [2].

On to `C[C@@H]1O[C@@H]1P(=O)([O-])[O-].[Na+].[Na+]` [PHOSPHOMYCIN DISODIUM], for which the MIC with Staphylococcus aureus was found to be 3.91 µg/mL; against Bacillus cereus, 3.91 µg/mL; with Ralstonia solanacearum [1], 125 µg/mL; in the assay with Ralstonia solanacearum [2], 1.95 µg/mL.
